The values that follow come from US4721711A, “Pyridazine derivatives active on the central nervous system, and medicaments in which they are present” (Sanofi, priority 1983, dated 1988).

Structures are written as SMILES. pEC50: −log10 of the molar value.

The target of assay [1] is GABA post-synaptic receptor. Briefly: displacement of tritiated GABA from its post-synaptic receptor (synaptic membranes, Enna and Snyder). Format: binding. Conditions: in vitro, tritiated GABA 3.6 nM, read-out: Median effective concentration (EC50) for displacement of tritiated GABA. On the procedure:
The products according to the invention were studied for their activity on the central nervous system. Activity on the displacement of .UPSILON.-aminobutyric acid from its post-synaptic receptor. Method: The neurochemical activity of the derivatives of the present invention on the GABA-ergic system was evaluated by measuring the displacement of .UPSILON.-aminobutyric acid (GABA) from its post-synaptic receptor. The study was carried out by the method of ENNA and […] (Brain Res. 100, 81-97, 1975). The displacement experiment was carried out in vitro in the presence of a suspension of synaptic membranes and tritiated GABA at a final concentration of 3.6 nM.

In assay [2] the test system is reserpine-induced ptosis in mice. Briefly: antagonism of reserpine-induced ptosis in mice. Format: in vivo. To be noted: Mus musculus, ip; intraperitoneal, with reserpine 2 mg/kg i.v., 1 hour, probit; (26-32)* on the line below. On the procedure:
2. Effect on the antagonism of reserpine-induced ptosis
The antidepressive activity of the compounds was evaluated in the test for the antagonism of reserpine-induced ptosis in mice.
This study was carried out on batches of 10 female mice weighing 20±1 g. The products were administered intraperitoneally at the same time as the reserpine (2 mg/kg, administered intravenously). The mice were observed individually 1 hour after the administrations. […] The median effective dose for antagonism (ED50) was evaluated by the probit method.

Assay [3] relates to spontaneous motility of mice. Briefly: spontaneous motility of mice (activity test). The assay is classed as in vivo. To be noted: oral, 45 minutes after administration, recorded 10 minutes. As to the method:
1. Activity on the motility of mice
The tranquillising-sedative activity of the derivatives of the present invention was evaluated by measuring the spontaneous motility of mice by means of the activity test (J. R. BOISSIER and P. SIMON, Arch. Int. Pharmacodyn. 1965, 158, 212-221).
The equipment consisted of activity cages of the Apelab type (length=26 cm; width=21.5 cm; height=10 cm), through which two rays of light pass, acting on a photoelectric cell.
The animals were placed individually in the cages 45 minutes after oral administration of the product: each crossing of a light beam was counted by an individual counter. The scores corresponding to the movements of the animals were recorded for 10 minutes. The batches consisted of 12 mice per dose.

Assay [4] has as its system rotational behaviour of mice. As to the kind of experiment: rotational behaviour of mice after unilateral lesion of the nigro-striated passage by 6-(OH)-dopamine. Format: in vivo, CD1 Charles River female mice. To be noted: intraperitoneal, 1 hour after administration, over 2 minutes, **p 0.01. As to the method:
3. Effect on the rotational behaviour of mice after unilateral lesion of the nigro-striated passage by 6-(OH)-dopamine
The influence of the derivatives of the present invention on the central dopaminergic system was evaluated on the rotational behaviour of mice after unilateral lesion of the nigro-striated passage by 6-(OH)-dopamine. (P. PROTAIS and J. COSTENTIN, J. Pharmacol. 7(2), 251-255, 1976).
CD1 Charles River female mice, weighing 20 to 24 g, have previously undergone unilateral lesion of the striatum by the stereotaxic injection of 6-(OH)-dopamine at a dose of 8 μg per animal. One week after this operation, the product to be studied was administered intraperitoneally to grouos of 7 mice. The number of rotations was evaluated over 2 minutes, 1 hour after the administration of the product. The rotations on the same side as the lesion were counted as positive and those on the opposite side were counted as negative. The algebraic sum of the rotations for a group treated animals was compared with that for the group of control animals which had only received the vehicle (physiological serum).

Consider `Cc1cc(-c2cccc3ccccc23)n[n+](CCCC(=O)O)c1N` [Example 24, 3-Amino-2-(3-carboxypropyl)-4-methyl-6-(naphth-1-yl)-2-pyridazinium chloride], for which, in assay [1], the pEC50 was 5.54.
On to `COc1ccc(-c2cc(C)c(N)[n+](CCCC(=O)O)n2)cc1` [Example 27], for which, in assay [1], the pEC50 is 5.30.
Same read-out and setting: next, `Cc1cc(-c2ccccc2Cl)n[n+](CCCC(=O)O)c1N` [Example 29]: 5.49; `Nc1ccc(-c2ccc(Cl)cc2Cl)n[n+]1CCCC(=O)O` [Example 30]: 5.15.
For `Nc1ccc(-c2ccc(Cl)cc2)n[n+]1CCCC(=O)O` [Example 31], the pEC50 in assay [1] was 5.90.
The same measure, in the same setting: next, `Cc1cc(-c2cccc(Cl)c2)n[n+](CCCC(=O)O)c1N` [Example 33]: 6.15.
The same measure, in the same setting: next, `Cc1ccc(-c2cc(C)c(N)[n+](CCCC(=O)O)n2)cc1` [Example 34]: 6.15.
The same measure, in the same setting: in the case of `Cc1cc(-c2ccccc2)n[n+](CCCC(=O)O)c1N` [Example 37] it was 5.55; in that of `Nc1ccc(-c2ccccc2)n[n+]1CCCC(=O)O` [Example 38], 5.87; in that of `Cc1cc(-c2ccccc2)n[n+](CCC(=O)O)c1N` [Example 39], 5.00.
By ED50 is commonly meant the dose that gives a 50% effect, or the effect in half of the subjects. For the molecule `Cc1cc(-c2ccccc2)n[n+](CCCCC(=O)O)c1N` [Example 40], in assay [2], the ED50 turned out to be 29 mg/kg. Besides, the “Motility of the mice, effect” value in assay [3] (50 mg/kg, *p 0.05) is -33%; in assay [3] (100 mg/kg, **p 0.01), -48%. Also, the entries for the “Rotational behaviour of mice, effect” value in assay [4] (0,5 mg/kg) and in assay [4] (2 mg/kg) were -50% and -62%, respectively.
Consider `Nc1ccc(C2CCCCC2)n[n+]1CCCC(=O)O` [Example 41], for which the pEC50 in assay [1] is 4.98.
On the same count and under the same terms, next, `Nc1ccc(-c2ccsc2)n[n+]1CCCC(=O)O` [Example 42]: 5.62; `Nc1ccc(-c2cccs2)n[n+]1CCCC(=O)O` [Example 43]: 6.08; `Cc1cc(-c2ccc(O)cc2)n[n+](CCCC(=O)O)c1N` [Example 47, 3-Amino-2-(3-carboxypropyl)-4-methyl-6-(4-hydroxyphenyl)-2-pyridazinium bromide]: 5.52.
